US20220220075A1, “SOLID FORM OF AROMATIC COMPOUND AND PREPARATION METHOD THEREFOR” (Sichuan Kelun-Biotech Biopharmaceutical Co., Ltd., priority 2019, published 2022)

Tests used:
hERG = hERG (Homo sapiens, UniProt Q12809); details: statement in words; tests disclosed in WO2019105234A1; cited from earlier work
[1] = High humidity stability test (purity by HPLC, XRPD); type: physicochemical; details: 25±2° C., 92.5% RH; for Purity: open dish
Protocol: (§1) In this experimental example, the chemical stability of crystalline form A was studied by high temperature and high humidity test.
(§2) Method for testing purity: high performance liquid chromatography (Chinese Pharmacopoeia, 2015 Edition, Four General Rules 0512) was used to test purify.
(§3) Chromatographic column: phenyl bonded silica gel was used as filler;
(§4) Mobile phase A: 5 mM ammonium acetate (pH 4.0);
(§5) Mobile phase B: Acetonitrile (containing 0.05% acetic acid);
(§6) Detection wavelength: 230 nm.
(§7) Elution condition: gradient elution.
The crystalline form A of the compound of Formula I was evenly spread into an open culture dish with a thickness of ≤5 mm, and placed in a constant temperature incubator at room temperature (25±2° C.) and relative humidity of 92.5% RH. […]

[2] = Study on pharmacokinetics (PK) in rats; type: in vivo, male SD rats; details: PO, 5 mg/kg
Protocol: A sample of crystalline form A was administered to male SD rats by intragastric route (PO) to investigate its pharmacokinetic characteristics. The dose was 5 mg/kg, and 0.5% MC (methylcellulose sodium) was used as a solvent to prepare a suspension of crystalline form A. In the administration group, whole blood samples were collected before PO administration (0 h) and at time points of 0.083, 0.17, 0.25, 0.5, 1, 2, 4, 6, 8 and 24 hours after administration. The whole blood samples were anticoagulated with EDTA.K2, and plasma samples were obtained after centrifugation and stored at −80° C. for later testing. In this experiment, there were three animals in each group for parallel testing.
The plasma samples were treated by precipitating protein and then analyzed by LC-MS/MS. Using WinNonlin 6.3 software, the pharmacokinetic parameters was calculated by means of the non-compartmental model, and the results were shown in Table 1.

PPAR δ = target: T1, PPAR δ (Homo sapiens, UniProt Q03181); details: statement in words; tests disclosed in WO2019105234A1; cited from earlier work
T1 sequence (Q03181 1-441): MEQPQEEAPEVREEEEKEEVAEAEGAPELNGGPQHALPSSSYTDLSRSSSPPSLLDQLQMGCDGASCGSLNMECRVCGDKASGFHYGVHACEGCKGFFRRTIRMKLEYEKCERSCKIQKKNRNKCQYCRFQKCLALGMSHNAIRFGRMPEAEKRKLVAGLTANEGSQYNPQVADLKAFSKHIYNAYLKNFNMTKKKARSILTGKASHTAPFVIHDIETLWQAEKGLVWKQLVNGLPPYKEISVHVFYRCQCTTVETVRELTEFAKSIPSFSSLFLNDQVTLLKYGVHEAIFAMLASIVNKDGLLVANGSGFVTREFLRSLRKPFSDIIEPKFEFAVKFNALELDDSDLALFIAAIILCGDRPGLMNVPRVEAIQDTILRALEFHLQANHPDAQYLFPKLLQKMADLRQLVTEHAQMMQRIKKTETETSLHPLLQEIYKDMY

HepG2 cells = details: statement in words; tests disclosed in WO2019105234A1; cited from earlier work
HEK293 cells = details: statement in words; tests disclosed in WO2019105234A1; cited from earlier work
[3] = High temperature stability test (purity by HPLC, XRPD); type: physicochemical; details: 60° C.; for Purity: sealed glass bottle
Protocol: as §1, §2, §3, §4, §5, §6, §7
The crystalline form A was placed in a sealed and clean glass bottle, and then the glass bottle was placed in a 60° C. constant temperature drying oven, and samples were taken on the […] and the 30th day, respectively, to detect impurity contents, and the purity results were shown in Table 2.

[4] = rat, male SD rats, suspension in 0.5% MC, plasma

hERG, sequence (Q12809 whole entry): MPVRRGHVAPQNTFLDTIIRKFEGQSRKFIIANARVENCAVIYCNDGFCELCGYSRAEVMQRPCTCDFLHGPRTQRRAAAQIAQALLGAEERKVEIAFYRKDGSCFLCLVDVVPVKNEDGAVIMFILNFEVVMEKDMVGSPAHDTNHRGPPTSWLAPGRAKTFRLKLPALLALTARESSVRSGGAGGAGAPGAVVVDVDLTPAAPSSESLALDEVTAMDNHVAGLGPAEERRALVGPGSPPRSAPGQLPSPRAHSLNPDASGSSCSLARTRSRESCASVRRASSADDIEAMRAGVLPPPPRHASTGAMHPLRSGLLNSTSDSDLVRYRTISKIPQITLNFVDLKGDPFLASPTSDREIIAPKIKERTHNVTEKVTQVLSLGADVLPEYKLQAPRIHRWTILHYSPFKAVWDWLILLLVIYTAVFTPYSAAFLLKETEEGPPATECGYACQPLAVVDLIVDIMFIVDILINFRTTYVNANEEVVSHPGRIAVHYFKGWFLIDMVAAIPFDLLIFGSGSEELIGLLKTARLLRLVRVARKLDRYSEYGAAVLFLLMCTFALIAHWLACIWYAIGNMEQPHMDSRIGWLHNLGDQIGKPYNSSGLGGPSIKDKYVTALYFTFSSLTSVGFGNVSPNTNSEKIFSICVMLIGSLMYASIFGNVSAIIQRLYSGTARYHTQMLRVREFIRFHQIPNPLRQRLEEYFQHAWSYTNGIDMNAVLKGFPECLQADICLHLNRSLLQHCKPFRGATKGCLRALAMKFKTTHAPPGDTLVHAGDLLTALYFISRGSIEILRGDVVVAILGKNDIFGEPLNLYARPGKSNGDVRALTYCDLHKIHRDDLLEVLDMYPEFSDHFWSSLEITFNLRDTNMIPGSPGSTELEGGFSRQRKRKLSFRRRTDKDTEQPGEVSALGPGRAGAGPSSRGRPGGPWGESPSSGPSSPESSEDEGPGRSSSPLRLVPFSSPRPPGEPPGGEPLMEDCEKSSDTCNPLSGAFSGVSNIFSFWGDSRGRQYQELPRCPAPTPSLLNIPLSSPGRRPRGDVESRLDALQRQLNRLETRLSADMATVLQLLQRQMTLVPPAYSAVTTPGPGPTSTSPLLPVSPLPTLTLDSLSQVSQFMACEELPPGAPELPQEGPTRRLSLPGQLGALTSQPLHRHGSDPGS

## COc1nc2ccccc2cc1C(=O)/C=C/c1cc(C)c(OC(C)(C)C(=O)O)c(C)c1 [crystalline form A, (E)-2-(4-(3-(2-methoxyquinolin-3-yl)-3-oxo-1-propen-1-yl)-2,6-dimethylphenoxy)-2-methyl-propionic acid]
hERG
  inhibitory effect on hERG: no obvious inhibitory effect
[1]; after 30 days of storage
  change of crystalline form by XRPD: did not change
[1]; 0th day
  Purity: 99.51%
[1]; 10th day
  Purity: 99.53%
[1]; 30th day
  Purity: 99.54%
[1]; up to 30 days
  change of purity under high humidity conditions: no significant change
[2]
  exposure in rat plasma: better exposure
[2]; [4]
  AUC(0-t): 777 ng·h/mL
  Cmax: 522 ng/mL
PPAR δ
  agonistic effect on PPAR δ: obvious agonistic effect
HepG2 cells
  toxicity to HepG2 cells: low toxicity
HEK293 cells
  toxicity to HEK293 cells: low toxicity
[3]; after 30 days of storage
  change of crystalline form by XRPD: did not change
[3]; 0th day
  Purity: 99.51%
[3]; 10th day
  Purity: 99.53%
[3]; 30th day
  Purity: 99.54%
[3]; up to 30 days
  change of purity under high temperature conditions: no significant change
